From ChEMBL document CHEMBL5584238, “Psammaplin A analogues with modified disulfide bond targeting histone deacetylases: Synthesis and biological evaluation” (Eur J Med Chem, 2024) come the findings set out here.

Assay [1] has as its system HCT-116. Description: Induction of apoptosis in human HCT-116 cells assessed as necrotic cells at 0.2 uM incubated for 24 hrs by Annexin V-FITC/PI staining based flow cytometry analysis ( Rvb = 0.24%). Type of assay: functional. (Flow cytometry measures light scatter and fluorescence of single cells or particles in a stream.)
Assay [2] concerns HCT-116. Description: Induction of cell cycle arrest in human HCT-116 cells assessed as accumulation of cells at S phase at 0.1 uM after 24 hrs by PI staining based flow cytometry analysis (reference value: 52.8%). Type of assay: functional.
In assay [3] the target is Class 1 histone deacetylase (Homo sapiens) (UniProt Q13547+O15379+Q92769+Q9BY41). Description: Inhibition of class 1 HDACs in human HCT-116 cells assessed as upregulation of acetylated alpha-H3 level incubated for 24 hrs by Western blotting analysis. Type of assay: cell-based. The note with it: dose 0.5-4 µM. Background: Immunoblotting shows a protein as a band on a membrane.

Assay [4] relates to HCT-116. In words: Induction of apoptosis in human HCT-116 cells assessed as late apoptotic cells at 0.4 uM incubated for 24 hrs by Annexin V-FITC/PI staining based flow cytometry analysis ( Rvb = 5.32%). It is filed as functional.
Assay [5] deals with T1, Protein deacetylase HDAC6 (Homo sapiens, UniProt Q9UBN7).
T1 sequence (Q9UBN7 whole entry): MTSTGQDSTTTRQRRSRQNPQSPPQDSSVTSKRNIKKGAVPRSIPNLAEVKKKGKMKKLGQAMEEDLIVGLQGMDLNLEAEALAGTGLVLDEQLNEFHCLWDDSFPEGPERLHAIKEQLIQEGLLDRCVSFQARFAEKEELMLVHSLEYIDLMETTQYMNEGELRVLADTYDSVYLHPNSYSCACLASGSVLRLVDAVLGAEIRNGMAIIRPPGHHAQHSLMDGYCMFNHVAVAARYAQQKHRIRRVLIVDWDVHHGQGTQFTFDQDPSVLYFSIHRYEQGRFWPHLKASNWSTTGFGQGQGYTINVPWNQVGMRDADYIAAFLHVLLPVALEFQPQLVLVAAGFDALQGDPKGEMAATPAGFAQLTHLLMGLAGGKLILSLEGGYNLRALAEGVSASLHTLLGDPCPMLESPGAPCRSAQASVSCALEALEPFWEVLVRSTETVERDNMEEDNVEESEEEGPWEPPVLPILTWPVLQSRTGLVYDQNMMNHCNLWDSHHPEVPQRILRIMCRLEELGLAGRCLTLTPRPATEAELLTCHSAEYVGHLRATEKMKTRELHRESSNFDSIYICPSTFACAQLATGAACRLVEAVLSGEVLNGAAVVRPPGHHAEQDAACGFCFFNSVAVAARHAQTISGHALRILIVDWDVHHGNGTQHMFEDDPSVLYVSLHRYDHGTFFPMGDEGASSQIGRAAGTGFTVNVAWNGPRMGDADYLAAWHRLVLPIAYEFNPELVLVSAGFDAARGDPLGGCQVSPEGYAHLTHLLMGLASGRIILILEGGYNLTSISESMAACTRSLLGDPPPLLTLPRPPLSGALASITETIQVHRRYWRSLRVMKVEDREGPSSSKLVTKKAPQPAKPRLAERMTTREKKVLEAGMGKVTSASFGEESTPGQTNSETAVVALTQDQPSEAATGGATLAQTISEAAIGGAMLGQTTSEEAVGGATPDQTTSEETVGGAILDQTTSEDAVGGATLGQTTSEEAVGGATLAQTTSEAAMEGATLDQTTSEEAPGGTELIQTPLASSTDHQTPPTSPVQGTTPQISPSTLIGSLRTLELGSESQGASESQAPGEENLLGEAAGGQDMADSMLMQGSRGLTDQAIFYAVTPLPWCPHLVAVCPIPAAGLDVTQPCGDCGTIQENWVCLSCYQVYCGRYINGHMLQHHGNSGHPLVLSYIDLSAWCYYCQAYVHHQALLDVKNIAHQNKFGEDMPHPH
Description: Inhibition of recombinant human HDAC6 using Boc-Lys(Ac)-AMC as substrate preincubated for 1 hr followed by substrate addition and measured after 2 hrs by microplate reader assay.

In assay [6] the test system is HCT-116. Description: Induction of cell cycle arrest in human HCT-116 cells assessed as accumulation of cells at G1 phase at 0.1 uM after 24 hrs by PI staining based flow cytometry analysis (reference value: 37.9%). It is filed as functional.
The subject of assay [7] is HCT-116. In words: Antiproliferative activity against human HCT-116 cells incubated for 48 hrs by MTT assay. Type of assay: functional, cell-based. Particulars: HCT-116, 48 h.
The subject of assay [8] is HCT-116. Description: Induction of apoptosis in human HCT-116 cells assessed as viable cells at 0.4 uM incubated for 24 hrs by Annexin V-FITC/PI staining based flow cytometry analysis ( Rvb = 92.2%). It is filed as functional. Particulars: read-out: Activity.
Assay [9] relates to HCT-116. In words: Induction of apoptosis in human HCT-116 cells assessed as necrotic cells at 0.4 uM incubated for 24 hrs by Annexin V-FITC/PI staining based flow cytometry analysis ( Rvb = 0.24%). It is filed as functional.

The structures appear in SMILES notation.

Chain of Class 1 histone deacetylase (Homo sapiens) (O15379 whole entry, looked up): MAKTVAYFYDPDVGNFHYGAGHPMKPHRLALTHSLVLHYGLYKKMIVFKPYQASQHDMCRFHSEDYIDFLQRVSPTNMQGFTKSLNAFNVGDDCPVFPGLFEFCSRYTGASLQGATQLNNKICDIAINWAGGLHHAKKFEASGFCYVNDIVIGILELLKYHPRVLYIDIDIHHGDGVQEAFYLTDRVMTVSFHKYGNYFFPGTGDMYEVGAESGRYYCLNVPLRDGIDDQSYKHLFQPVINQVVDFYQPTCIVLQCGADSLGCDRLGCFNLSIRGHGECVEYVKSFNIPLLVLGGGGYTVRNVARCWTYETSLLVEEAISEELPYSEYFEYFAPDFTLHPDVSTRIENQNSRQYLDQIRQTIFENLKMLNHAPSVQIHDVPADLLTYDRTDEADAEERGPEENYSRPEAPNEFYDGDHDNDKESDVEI
Chain of Class 1 histone deacetylase (Homo sapiens) (Q13547 whole entry, looked up): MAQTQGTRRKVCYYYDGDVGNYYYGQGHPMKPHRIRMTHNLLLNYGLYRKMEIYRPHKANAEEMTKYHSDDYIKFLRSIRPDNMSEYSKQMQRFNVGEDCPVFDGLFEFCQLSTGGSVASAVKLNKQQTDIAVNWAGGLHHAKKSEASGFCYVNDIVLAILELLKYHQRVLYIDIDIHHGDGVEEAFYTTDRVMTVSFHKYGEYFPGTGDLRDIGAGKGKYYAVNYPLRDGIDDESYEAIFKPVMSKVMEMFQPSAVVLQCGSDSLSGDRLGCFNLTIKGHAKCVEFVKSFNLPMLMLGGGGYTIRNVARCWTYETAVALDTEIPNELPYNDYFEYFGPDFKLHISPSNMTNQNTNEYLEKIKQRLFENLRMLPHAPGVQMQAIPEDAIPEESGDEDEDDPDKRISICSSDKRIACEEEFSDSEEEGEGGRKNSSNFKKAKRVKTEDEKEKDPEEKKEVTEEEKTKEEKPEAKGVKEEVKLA
Chain of Class 1 histone deacetylase (Homo sapiens) (Q92769 whole entry, looked up): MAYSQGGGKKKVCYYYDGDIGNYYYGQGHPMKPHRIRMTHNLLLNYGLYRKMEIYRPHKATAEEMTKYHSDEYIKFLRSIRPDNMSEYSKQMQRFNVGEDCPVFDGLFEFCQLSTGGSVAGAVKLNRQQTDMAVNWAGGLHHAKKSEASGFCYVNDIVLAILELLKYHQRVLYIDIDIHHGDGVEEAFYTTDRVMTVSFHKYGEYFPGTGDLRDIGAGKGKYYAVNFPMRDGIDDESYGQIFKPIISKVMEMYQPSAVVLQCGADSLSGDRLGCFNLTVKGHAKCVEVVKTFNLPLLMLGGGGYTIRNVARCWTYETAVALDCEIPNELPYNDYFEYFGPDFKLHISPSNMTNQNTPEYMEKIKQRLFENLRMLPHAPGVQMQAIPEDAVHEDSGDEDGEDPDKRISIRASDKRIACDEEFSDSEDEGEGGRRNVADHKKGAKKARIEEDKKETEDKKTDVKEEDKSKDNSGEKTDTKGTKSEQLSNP
Chain of Class 1 histone deacetylase (Homo sapiens) (Q9BY41 whole entry, looked up): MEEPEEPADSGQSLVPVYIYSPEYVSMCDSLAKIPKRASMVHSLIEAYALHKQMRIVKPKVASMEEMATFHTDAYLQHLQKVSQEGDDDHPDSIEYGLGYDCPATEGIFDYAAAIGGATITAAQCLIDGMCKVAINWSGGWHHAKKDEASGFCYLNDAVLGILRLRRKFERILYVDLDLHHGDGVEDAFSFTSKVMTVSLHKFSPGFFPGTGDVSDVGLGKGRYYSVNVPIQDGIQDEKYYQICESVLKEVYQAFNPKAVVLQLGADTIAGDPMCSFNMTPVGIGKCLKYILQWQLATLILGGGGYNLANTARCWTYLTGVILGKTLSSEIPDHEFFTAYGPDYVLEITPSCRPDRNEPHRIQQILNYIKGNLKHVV

For orientation: IC50 means the concentration that inhibits the measured activity by half. As for `O=C(NCC[Se][Se]CCNC(=O)/C(Cc1ccc(O)c(Br)c1)=N/O)/C(Cc1ccc(O)c(Br)c1)=N/O`, the Activity with HCT-116 [1] was found to be 0.32%; in the assay on HCT-116 [2], 20%; in the assay on HCT-116 [4], 4.94%; in the assay on HCT-116 [6], 32.08%; in the assay on HCT-116 [9] it was 0.082%. In addition, the inhibition result in assay [3] is “Dose-Dependent Effect”. Further, the concentration for half-maximal inhibition (IC50) in [5] is 60 nM; with HCT-116 [7] it was 240 nM. Moreover, the viability at 0.4 µM in the assay with HCT-116 [8] is 28%.

With `O=C(NCC[Se][Se]CCNC(=O)/C(Cc1ccsc1)=N/O)/C(Cc1ccsc1)=N/O`, the Activity was 0.18% in the assay with HCT-116 [1]; 18.84% in the assay on HCT-116 [2]; 6.97% in the assay on HCT-116 [4]; 50.11% in the assay on HCT-116 [6]; 0.057% with HCT-116 [9]. The inhibition entry in assay [3] is “Dose-Dependent Effect”. Besides, the results for the IC50 (in assay [5]; with HCT-116 [7]) were 3100 nM and 210 nM, respectively. In the assay with HCT-116 [8], the viability at 0.4 µM worked out at 19.7%.
